# Laboratory results: patent US20210214560A1, “COMPOUND, COLORING COMPOSITION, INK, TONER, COLORING RESIN COMPOSITION, AND COMPOSITION FOR DYEING FIBER” (FUJIFILM Corporation, priority 2018, published 2021)
# Experiment: Evaluation 2 of heat stability, powder heated at 200° C. for 5 minutes
# Type: physicochemical
# Conditions: oven 200° C. for 5 minutes, A2/A0×100, absorbance in tetrahydrofuran
# Experimental: (§1) Heat stability of each compound was evaluated by the following procedure. 10 mg of the powder of each compound was dissolved in 500 mL of tetrahydrofuran, and the absorption spectrum was measured to obtain a reference absorbance (A0). On the other hand, 10 mg of the powder of each compound was weighed in a 4 cm square aluminum cup, placed in an oven, and heated at 200° C. for 5 minutes. The entire amount of the powder after heating was dissolved in 500 mL of tetrahydrofuran, and the absorption spectrum was measured to obtain an absorbance (A2) after the heating test. The residual rate of each compound was calculated by the following expression to evaluate heat stability.
# Residual rate of compound (%)=A2/A0×100
row,Residual rate of compound,SMILES
1,85%,CC(C)C1(C)Nc2cccc3ccc(N=Nc4ccc(N=Nc5ccccc5Cl)c5ccccc45)c(c23)N1 (centres unmarked) [(3-9)]
2,65%,"CC1(C)Nc2cccc3ccc(N=Nc4ccc(N=Nc5ccccc5)c5ccccc45)c(c23)N1 [Comparative compound D, reference compound]"
3,88%,CCCCCC1(C)Nc2cccc3ccc(N=Nc4ccc(N=Nc5ccccc5Cl)c5ccccc45)c(c23)N1 (centres unmarked) [(3-10)]
4,87%,CCCCC1(C)Nc2cccc3ccc(N=Nc4ccc(N=Nc5ccccc5Cl)c5ccccc45)c(c23)N1 (centres unmarked) [(3-8)]
5,96%,CC(=O)c1ccccc1N=Nc1ccc(N=Nc2ccc3cccc4c3c2NC(C)(C)N4)c2ccccc12 [(3-6)]
6,88%,CC1(C)Nc2cccc3ccc(N=Nc4ccc(N=Nc5ccccc5C#N)c5ccccc45)c(c23)N1 [(3-4)]
7,85%,CC1(C)Nc2cccc3ccc(N=Nc4ccc(N=Nc5ccccc5F)c5ccccc45)c(c23)N1 [(3-2)]
8,59%,"CC1(C)Nc2cccc3c(N=Nc4ccc(N=Nc5ccccc5)c5ccccc45)ccc(c23)N1 [Comparative compound C, reference compound]"

# Experiment: Evaluation of maximum absorption wavelength (absorption spectrum in tetrahydrofuran solution)
# Type: physicochemical
# Conditions: 1×10^−6 mol/L, optical path length 10 mm (Table 7)
Absorption maximum wavelength,Molar light absorption coefficient,SMILES
607 nm,"34,200 L · mol^−1 · cm^−1",CC1(CC(N)=O)Nc2cccc3c(N=Nc4ccc(N=Nc5ccccc5Cl)c5ccccc45)ccc(c23)N1 (centres unmarked) [(1-62)]
629 nm,"34,800 L · mol^−1 · cm^−1",CC1CCCCC12Nc1cccc3c(N=Nc4ccc(N=Nc5ccccc5Cl)c5ccccc45)ccc(c13)N2 (centres unmarked) [(1-27)]
629 nm,"35,900 L · mol^−1 · cm^−1",CCCCCC1(C)Nc2cccc3c(N=Nc4ccc(N=Nc5ccccc5Cl)c5ccccc45)ccc(c23)N1 (centres unmarked) [(1-9)]
631 nm,"33,000 L · mol^−1 · cm^−1",CC(C)C1(C)Nc2cccc3c(N=Nc4ccc(N=Nc5ccccc5Cl)c5ccccc45)ccc(c23)N1 (centres unmarked) [(1-4)]
648 nm,"28,900 L · mol^−1 · cm^−1",CC1(C)Nc2cccc3c(N=Nc4ccc(N=Nc5ccccc5C#N)c5ccccc45)ccc(c23)N1 [(1-38)]
631 nm,"35,200 L · mol^−1 · cm^−1",CC(C)(C)C1(C)Nc2cccc3c(N=Nc4ccc(N=Nc5ccccc5Cl)c5ccccc45)ccc(c23)N1 (centres unmarked) [(1-8)]
619 nm,"35,000 L · mol^−1 · cm^−1",CC1(C)Nc2cccc3c(N=Nc4ccc(N=Nc5ccccc5F)c5ccccc45)ccc(c23)N1 [(1-31)]
622 nm,"33,100 L · mol^−1 · cm^−1",CC1(CO)Nc2cccc3c(N=Nc4ccc(N=Nc5ccccc5Cl)c5ccccc45)ccc(c23)N1 (centres unmarked) [(1-17)]
629 nm,"34,400 L · mol^−1 · cm^−1",CCCC1(C)Nc2cccc3c(N=Nc4ccc(N=Nc5ccccc5Cl)c5ccccc45)ccc(c23)N1 (centres unmarked) [Compound (1-3)]
623 nm,"33,900 L · mol^−1 · cm^−1",CC(C)NC(=O)OCC1(C)Nc2cccc3c(N=Nc4ccc(N=Nc5ccccc5Cl)c5ccccc45)ccc(c23)N1 (centres unmarked) [(1-21)]
629 nm,"35,100 L · mol^−1 · cm^−1",CCCCC1(C)Nc2cccc3c(N=Nc4ccc(N=Nc5ccccc5Cl)c5ccccc45)ccc(c23)N1 (centres unmarked) [(1-5)]
623 nm,"33,800 L · mol^−1 · cm^−1",CCCCC(CC)C(=O)OCC1(C)Nc2cccc3c(N=Nc4ccc(N=Nc5ccccc5Cl)c5ccccc45)ccc(c23)N1 (centres unmarked) [(1-20)]
639 nm,"35,700 L · mol^−1 · cm^−1",CC1(C)Nc2cccc3c(N=Nc4ccc(N=Nc5ccccc5C(=O)c5ccccc5)c5ccccc45)ccc(c23)N1 [(1-59)]
604 nm,"34,100 L · mol^−1 · cm^−1",CC1(CC#N)Nc2cccc3c(N=Nc4ccc(N=Nc5ccccc5Cl)c5ccccc45)ccc(c23)N1 (centres unmarked) [(1-61)]
627 nm,"34,000 L · mol^−1 · cm^−1",CCC1(C)Nc2cccc3c(N=Nc4ccc(N=Nc5ccccc5Cl)c5ccccc45)ccc(c23)N1 (centres unmarked) [(1-2)]
599 nm,"26,600 L · mol^−1 · cm^−1",COC(=O)c1ccccc1N=Nc1ccc(N=Nc2ccc3c4c(cccc24)NC(C)(C)N3)c2ccccc12 [(1-40)]
629 nm,"34,900 L · mol^−1 · cm^−1",CCCCCC1(C)Nc2cccc3c(N=Nc4ccc(N=Nc5ccccc5C(C)=O)c5ccccc45)ccc(c23)N1 (centres unmarked) [(1-50)]
631 nm,"36,800 L · mol^−1 · cm^−1",CC1(Cc2ccccc2)Nc2cccc3c(N=Nc4ccc(N=Nc5ccccc5Cl)c5ccccc45)ccc(c23)N1 (centres unmarked) [(1-64)]
621 nm,"32,800 L · mol^−1 · cm^−1",CC1(C)Nc2cccc3c(N=Nc4ccc(N=Nc5ccccc5Br)c5ccccc45)ccc(c23)N1 [(1-34)]
624 nm,"34,500 L · mol^−1 · cm^−1",CC1(C)Nc2cccc3c(N=Nc4ccc(N=Nc5ccccc5Cl)c5ccccc45)ccc(c23)N1 [(1-1)]

# Same assay, conditions: 1×10^−6 mol/L, optical path length 10 mm (Table 9)
Absorption maximum wavelength,Molar light absorption coefficient,SMILES
614 nm,35500 L/mol/cm,CC(C)C1(C)Nc2cccc3ccc(N=Nc4ccc(N=Nc5ccccc5Cl)c5ccccc45)c(c23)N1 (centres unmarked) [(3-9)]
599 nm,34200 L/mol/cm,"CC1(C)Nc2cccc3ccc(N=Nc4ccc(N=Nc5ccccc5)c5ccccc45)c(c23)N1 [Comparative compound D, reference compound]"
615 nm,34800 L/mol/cm,CCCCCC1(C)Nc2cccc3ccc(N=Nc4ccc(N=Nc5ccccc5Cl)c5ccccc45)c(c23)N1 (centres unmarked) [(3-10)]
616 nm,35800 L/mol/cm,CCCCC1(C)Nc2cccc3ccc(N=Nc4ccc(N=Nc5ccccc5Cl)c5ccccc45)c(c23)N1 (centres unmarked) [(3-8)]
615 nm,36100 L/mol/cm,CC(=O)c1ccccc1N=Nc1ccc(N=Nc2ccc3cccc4c3c2NC(C)(C)N4)c2ccccc12 [(3-6)]
638 nm,30500 L/mol/cm,CC1(C)Nc2cccc3ccc(N=Nc4ccc(N=Nc5ccccc5C#N)c5ccccc45)c(c23)N1 [(3-4)]
608 nm,36000 L/mol/cm,CC1(C)Nc2cccc3ccc(N=Nc4ccc(N=Nc5ccccc5F)c5ccccc45)c(c23)N1 [(3-2)]
607 nm,32000 L/mol/cm,"CC1(C)Nc2cccc3c(N=Nc4ccc(N=Nc5ccccc5)c5ccccc45)ccc(c23)N1 [Comparative compound C, reference compound]"

# Experiment: Evaluation of heat stability (heat resistance), powder heated at 180° C. for 5 minutes
# Type: physicochemical
# Conditions: oven 180° C. for 5 minutes, A/A0×100, absorbance in tetrahydrofuran
# Experimental: as §1, with “180°” for “200°”, “(A)” for “(A2)”
# Residual rate of compound (%)=A/A0×100
row,Residual rate of compound,SMILES
1,74%,CC1(CC(N)=O)Nc2cccc3c(N=Nc4ccc(N=Nc5ccccc5Cl)c5ccccc45)ccc(c23)N1 (centres unmarked) [(1-62)]
2,81%,CC1CCCCC12Nc1cccc3c(N=Nc4ccc(N=Nc5ccccc5Cl)c5ccccc45)ccc(c13)N2 (centres unmarked) [(1-27)]
3,84%,CCCCCC1(C)Nc2cccc3c(N=Nc4ccc(N=Nc5ccccc5Cl)c5ccccc45)ccc(c23)N1 (centres unmarked) [(1-9)]
4,84%,CC(C)C1(C)Nc2cccc3c(N=Nc4ccc(N=Nc5ccccc5Cl)c5ccccc45)ccc(c23)N1 (centres unmarked) [(1-4)]
5,92%,CC1(C)Nc2cccc3c(N=Nc4ccc(N=Nc5ccccc5C#N)c5ccccc45)ccc(c23)N1 [(1-38)]
6,81%,CC(C)(C)C1(C)Nc2cccc3c(N=Nc4ccc(N=Nc5ccccc5Cl)c5ccccc45)ccc(c23)N1 (centres unmarked) [(1-8)]
7,90%,CC1(C)Nc2cccc3c(N=Nc4ccc(N=Nc5ccccc5F)c5ccccc45)ccc(c23)N1 [(1-31)]
8,89%,CC1(CO)Nc2cccc3c(N=Nc4ccc(N=Nc5ccccc5Cl)c5ccccc45)ccc(c23)N1 (centres unmarked) [(1-17)]
9,82%,CCCC1(C)Nc2cccc3c(N=Nc4ccc(N=Nc5ccccc5Cl)c5ccccc45)ccc(c23)N1 (centres unmarked) [Compound (1-3)]
10,84%,CC(C)NC(=O)OCC1(C)Nc2cccc3c(N=Nc4ccc(N=Nc5ccccc5Cl)c5ccccc45)ccc(c23)N1 (centres unmarked) [(1-21)]
11,81%,CCCCC1(C)Nc2cccc3c(N=Nc4ccc(N=Nc5ccccc5Cl)c5ccccc45)ccc(c23)N1 (centres unmarked) [(1-5)]
12,84%,CCCCC(CC)C(=O)OCC1(C)Nc2cccc3c(N=Nc4ccc(N=Nc5ccccc5Cl)c5ccccc45)ccc(c23)N1 (centres unmarked) [(1-20)]
13,82%,CC1(C)Nc2cccc3c(N=Nc4ccc(N=Nc5ccccc5C(=O)c5ccccc5)c5ccccc45)ccc(c23)N1 [(1-59)]
14,77%,CC1(CC#N)Nc2cccc3c(N=Nc4ccc(N=Nc5ccccc5Cl)c5ccccc45)ccc(c23)N1 (centres unmarked) [(1-61)]
15,64%,"CC1(C)Nc2cccc3c(N=Nc4ccc(N=Nc5ccc(F)cc5)c5ccccc45)ccc(c23)N1 [Comparative compound B, reference compound]"
16,84%,CCC1(C)Nc2cccc3c(N=Nc4ccc(N=Nc5ccccc5Cl)c5ccccc45)ccc(c23)N1 (centres unmarked) [(1-2)]
17,80%,COC(=O)c1ccccc1N=Nc1ccc(N=Nc2ccc3c4c(cccc24)NC(C)(C)N3)c2ccccc12 [(1-40)]
18,98%,CCCCCC1(C)Nc2cccc3c(N=Nc4ccc(N=Nc5ccccc5C(C)=O)c5ccccc45)ccc(c23)N1 (centres unmarked) [(1-50)]
19,73%,CC1(Cc2ccccc2)Nc2cccc3c(N=Nc4ccc(N=Nc5ccccc5Cl)c5ccccc45)ccc(c23)N1 (centres unmarked) [(1-64)]
20,74%,CC1(C)Nc2cccc3c(N=Nc4ccc(N=Nc5ccccc5Br)c5ccccc45)ccc(c23)N1 [(1-34)]
21,63%,"CC1(C)Nc2cccc3c(N=Nc4ccc(N=Nc5cccc(F)c5)c5ccccc45)ccc(c23)N1 [Comparative compound A, reference compound]"
22,85%,CC1(C)Nc2cccc3c(N=Nc4ccc(N=Nc5ccccc5Cl)c5ccccc45)ccc(c23)N1 [(1-1)]
